The source of these data is publication PMC8274846, “Biogenic nanoporous silicon carrier improves the efficacy of buparvaquone against resistant visceral leishmaniasis” (PLoS Neglected Tropical Diseases, 2021).

Molecules are shown by their SMILES.

Data set [1] relates to intracellular L.donovani amastigotes, AG83-R, PMM, in macrophages. Briefly: microbe, parasite or virus in culture. It counts as cell-based. On the procedure:
(§1) SSG and PMM resistant L. donovani amastigotes were generated by using the methods described previously. […] The cultures were stabilized for three subcultures. Then, the drug concentration was increased until the cell population decreased approximately to 20% for each batch. Finally, when 90% cell population of the initial count was reduced, the phenotype generated was plated on medium 199 agar plates containing the same drug concentration, and a single colony was picked for culture in medium 199 liquid media at the same drug concentration. The cultured promastigotes are converted into amastigotes as described above. Drug pressure was withdrawn, and stability was checked at one, two, and four months. SSG and PMM resistant phenotype clones were labeled as AG83-R,SSG and AG83-R, PMM, respectively.
(§2) The intracellular antileishmanial activity was evaluated based on the reduction in the amastigote numbers in the infected macrophages after the treatment. The method was adapted from our previous work. Briefly, 4x10^6 amastigotes in 500 μL of RPMI-1640 suspension were added to each well containing macrophages with the macrophage: parasite ratio of 1:10. The plates were incubated for 4 h at 37°C in 5% CO2. After the parasite internalization period, cells were washed at least twice with fresh media to remove non-phagocytosed parasites. Then, the drug specimen suspended in 1 mL RPMI-1640 was added, and the samples were incubated for 72 h at 37°C in 5% CO2. The medium was aspirated, the coverslips were removed, and then fixed with methanol and air-dried. After staining with Giemsa, 100 cells on the glass discs were counted. Three independent experiments in quadruplicate for each concentration were performed.
(§3) Microscopic examinations were performed in duplicates with various concentrations of pure drugs or buparvaquone-loaded nanoparticles and also for control wells. The amastigotes cells were counted for all cases using a hemocytometer. The mean of the control wells was considered as 100% survival. The counts in the treated wells at various concentrations were converted into percentages. Giemsa-stained slides of the macrophages infected with amastigotes were observed under a light microscope. Then the numbers of amastigotes and infected macrophages per 100 cells were counted for each slide. The percentage (%) of inhibition was calculated by using the equation %ofinhibition=C−T/C×100, (2) where C is the number of amastigotes/infected macrophages per 100 cells in the control well and T is the number of amastigotes/infected macrophages per 100 cells in the drug-treated well.
(§4) Origin version 6.1 software was used to calculate IC50 and CC50 values by plotting a graph of the percentage of inhibition at various concentrations of all the observations.

Data set [2] concerns intracellular L.donovani amastigotes, AG83-R, SSG, in macrophages. Briefly: microbe, parasite or virus in culture. It counts as cell-based. On the procedure:
as §1, §2, §3, §4

Data set [3] relates to axenic L.donovani amastigotes, wild-type AG83. In words: Antileishmanial activity against axenic amastigotes, wild-type AG83. The format is cell-based. The method, then:
(§5) L. donovani AG83 (MHOM/IN/83/AG83) and GE1 (MHOM/IN/80/GE1F8R) promastigotes were routinely grown in medium 199 supplemented with 10% heat-inactivated fetal bovine serum, 2 mM L-glutamine, 20 mM HEPES, 100 U/mL penicillin, and 100 μg/mL streptomycin at 25°C. L. donovani amastigote forms were grown and maintained as described previously. Axenic amastigote forms were derived from promastigote forms by culturing them in MMA/20 (medium for axenic amastigote) at pH 5.5 [22]. Axenically grown amastigotes were maintained by sub-culture of 10^5 parasites/ml repeated every fifth day under experimental conditions of 37°C temperature and 5% CO2 environment.
(§6) The antileishmanial activity of the drug specimens (BPQ+NP, BPQ, SSG, AmB, PMM, and MF) against the axenic amastigotes were evaluated based on the IC50 value, which is the concentration of the specimen required to kill 50% of the parasites. The parasites were first seeded into 96-well plates at a density of 1x10^5 amastigotes/well in 200 μL medium. Then, 10 μL of the drug candidates at various concentrations were added and the final volume was adjusted to […] medium. The number of amastigotes in the wells treated with each specimen were compared to those in the untreated control wells.
as §3, §4

For data set [4], the system named is resident peritoneal macrophages. In words: Cytotoxicity studies (CC50) on peritoneal macrophages. The format is cell-based, BALB/c mice. Conditions: 48 h exposure, mean ± σ, n = 3, read-out: CC50. On the procedure:
(§7) Resident peritoneal macrophages were isolated from BALB/c mice. For the isolation, 1.5 mL of sterile thioglycolate medium was injected into the peritoneal cavity to induce non-infectious inflammation. Animals were sacrificed after 5 days, and peritoneal exudates were harvested by intraperitoneal lavage. Cold RPMI (6 mL) was injected into the peritoneal cavity. After 10 min, the injected fluid was withdrawn by the same syringe. From each animal, approximately 3-4 mL of medium was recovered. After centrifugation at 200 g for 15 min, macrophages were collected. […] The cytotoxicity of the drug specimen was evaluated by the CC50 value, which is the concentration required to kill 50% of the host cell population. Macrophages were first isolated from peritoneal lavage as described above. The cells were seeded into 96-well plates at 1x10^6 cells/mL in 200 μL of RPMI-1640 supplemented with 10% FCS, 20 mM L-glutamine, 16 mM NaHCO3, penicillin (50 U/mL) and streptomycin (50 μg/ mL) at 37°C in 5% CO2 for 4 h for adherence. To remove the non-adherent cells, each plate was washed two times with phosphate buffer saline (pH 7.2). […] Microscopic examinations were performed in duplicates with various concentrations of pure drugs or buparvaquone-loaded nanoparticles and also for control wells. The amastigotes cells were counted for all cases using a hemocytometer. The mean of the control wells was considered as 100% survival. The counts in the treated wells at various concentrations were converted into percentages. Giemsa-stained slides of the macrophages infected with amastigotes were observed under a light microscope. Then the numbers of amastigotes and infected macrophages per 100 cells were counted for each slide. The percentage (%) of inhibition was calculated by using the equation %[…]×100, (2) where C is the number of amastigotes/infected macrophages per 100 cells in the control well and T is the number of amastigotes/infected macrophages per 100 cells in the drug-treated well.

Assay in data set [5]: as above
The format is cell-based, BALB/c mice. Conditions: BALB/c, mouse, resident peritoneal macrophages, 48 h exposure, mean ± σ, n = 3. The method, then:
as §7

The subject of data set [6] is axenic L.donovani amastigotes, AG83-R, SSG (SSG resistant strain generated from AG83). Briefly: microbe, parasite or virus in culture. It counts as cell-based. On the procedure: as §5, §1, §6, §3, §4
Data set [7] has as its system axenic L.donovani amastigotes, AG83-R, PMM (PMM resistant strain generated from AG83). In words: microbe, parasite or virus in culture. It counts as cell-based. On the procedure:
as §5, §1, §6, §3, §4

On the set-up of data set [8]: method as in PMID 1289357, PMID 14695832. Particulars: cited from earlier work.
The mark [9] stands for this setting: IC50 against drug resistant strain / IC50 against wild-type strain (AG83), axenic.

For orientation: IC50 means the midpoint of a concentration-inhibition curve. One may read the CC50 as the concentration that lowers cell viability or growth by half. As a reminder, the Aqueous solubility is the dissolved amount per volume that the medium holds. As to `CC(C)(C)[C@H]1CC[C@H](CC2=C(O)C(=O)c3ccccc3C2=O)CC1` [BPQ, Buparvaquone], the “Fold larger cellular IC50 of pure BPQ than BPQ+NP” value in data set [1] (AG83-R, PMM) is reported as 5 fold; in data set [2] (AG83-R, SSG) it was 5 fold. The “Selectivity index (SI), AG83-R, PMM” value in data set [1] (CC50/IC50, intracellular) was 60 ± 10. The concentration for half-maximal inhibition (IC50) in data set [1] (Leishmania donovani, Macrophage, 72 h, read-out: Cellular IC50, AG83-R, PMM) was determined as 4.8 ± 0.5 µM; in data set [2] (Leishmania donovani, Macrophage, 72 h, read-out: Cellular IC50, AG83-R, SSG) it was 5.4 ± 0.4 µM; in data set [3] (Leishmania donovani, axenic amastigotes, mean ± σ, n = 4), 3.4 ± 0.3 µM; in data set [6] (Leishmania donovani, read-out: Axenic IC50, AG83-R, SSG) it was 8.1 ± 0.8 µM; in data set [7] (Leishmania donovani, read-out: Axenic IC50, AG83-R, PMM), 7.1 ± 0.8 µM. In addition, the “Selectivity index (SI), AG83-R, SSG” value in data set [2] (CC50/IC50, intracellular) came out at 60 ± 10. Besides, the “Fold higher axenic IC50 of pure BPQ than BPQ+NP” value is reported as 3 fold in data set [3] (wild-type AG83); 8 fold in data set [6] (AG83-R, SSG); 7 fold in data set [7] (AG83-R, PMM). Besides, the CC50 in data set [4] was found to be 330 ± 30 µM. In data set [5], this compound displayed a CC50 at 48 h of more than 300 µM. Further, in data set [6] (setting [9]), the “Resistance index (RI), AG83-R, SSG” value is on record as 2.4 ± 1.2. For the same compound, the “Resistance index (RI), AG83-R, PMM” value in data set [7] (setting [9]) is 2.1 ± 1.5. Besides, the Aqueous solubility in data set [8] was less than 0.03 µg/mL.
